According to article PMC4948833, “A Sensitive and Robust High-Throughput Screening Assay for Inhibitors of the Chikungunya Virus nsP1 Capping Enzyme” (PLoS ONE, 2016):

What was measured:
[1] = tested on: CHIKV nsP1 guanylation activity; assay: Guanylation assay, covalent nsP1-GTP-680 formation, SDS-PAGE fluorescence; details: for effect on nsP1 guanylation activity (in words): 100 μM GTP, 100 μM SAM or both, Fig 2; for effect on nsP1 guanylation activity (in words) / ability to inhibit nsP1 guanylation (in words): 1 hour; for % of control, mean of replicates: mean of n = 3, 100 uM, given as fraction, Fig 2 data; for ability to inhibit nsP1 guanylation (in words): 100 μM of each GTP analog, Fig 4; for Average POC: mean of replicates; for Average POC / Percent of Control: 100 μM analog, Fig 4 data; for Percent of Control: single replicates, scaled guanylation
[2] = tested on: CHIKV nsP1; assay: HTS validation potency repeatability, EC50 of GTP analogs in two independent FP runs
[3] = tested on: CHIKV nsP1 GTP binding site; assay: FP competition assay, displacement of GTP-Bodipy by GTP and RNA cap analogs (apparent Ki / EC50); details: for affinity for nsP1 GTP binding site / ability to compete with GTP-Bodipy (in words): FP competition, compared with GTP; for Ki: read-out: Average Ki, apparent Ki, 500 nM nsP1, 10 nM GTP-Bodipy, 1 hour 25°C

Compound	ability to inhibit nsP1 guanylation (in words) [1]	Average POC [1]	Percent of Control ([1]; 100 µM)	Geometric Mean Potency ([2]; first set of rows)	Geometric Mean Potency ([2]; second set of rows)	affinity for nsP1 GTP binding site / ability to compete with GTP-Bodipy (in words) [3]	Ki [3]	other results
C[S+](CC[C@H](N)C(=O)[O-])C[C@H]1O[C@@H](n2cnc3c(N)ncnc32)[C@H](O)[C@@H]1O (stereo partly drawn) [SAM, S-adenosyl methionine]								effect on nsP1 guanylation activity (in words) [1]: guanylation activity was maintained; % of control, mean of replicates [1]: 0.9908
O=c1[nH]c(=O)c2ncn([C@@H]3O[C@H](COP(=O)(O)OP(=O)(O)OP(=O)(O)O)[C@@H](O)[C@H]3O)c2[nH]1 [XTP]	greatest ability to in inhibit nsP1 guanylation activity	32.3662	34.0129	5.251	5.346	slightly higher affinity compared to GTP	0.402 µM	Percent of Control ([1]; listed as XTP2, 100 µM): 27.443; Percent of Control ([1]; listed as XTP3, 100 µM): 35.6426
Nc1nc2c(ncn2[C@@H]2O[C@H](COP(=O)(O)OP(=O)(O)OP(=O)(O)OC[C@H]3O[C@@H](n4cnc5c(N)ncnc54)[C@H](O)[C@@H]3O)[C@@H](O)[C@H]2O)c(=O)[nH]1 [GpppA]		66.8805	57.9814	4.749	4.683	better competitor than me^7GpppA	1.89 µM	Percent of Control ([1]; listed as GpppA2, 100 µM): 71.1847; Percent of Control ([1]; listed as GpppA3, 100 µM): 71.4754
Cn1c[n+]([C@@H]2O[C@H](COP(=O)([O-])OP(=O)(O)OP(=O)(O)O)[C@@H](O)[C@H]2O)c2nc(N)[nH]c(=O)c21 [me^7-GTP]		37.4013				able to compete for the GTP binding site	1.55 µM	Percent of Control ([1]; listed as m7-GTP2, 100 µM): 37.3024; Percent of Control ([1]; listed as m7-GTP, 100 µM): 37.5003
Nc1ncnc2c1ncn2[C@@H]1O[C@H](COP(=O)(O)OP(=O)(O)OP(=O)(O)O)[C@@H](O)[C@H]1O [ATP]		73.0319	67.4851	4.371	4.429	six fold affinity reduction	3.34 µM	Percent of Control ([1]; listed as ATP2, 100 µM): 83.2927; Percent of Control ([1]; listed as ATP3, 100 µM): 68.3179
C[n+]1cn([C@@H]2O[C@H](COP(=O)([O-])OP(=O)(O)OP(=O)(O)OC[C@H]3O[C@@H](n4cnc5c(N)ncnc54)[C@H](O)[C@@H]3O)[C@@H](O)[C@H]2O)c2nc(N)[nH]c(=O)c21 [me^7-GpppA]		75.4802		4.163	4.105		7 µM	Percent of Control ([1]; listed as m7-GpppA2, 100 µM): 75.9437; Percent of Control ([1]; listed as m7-GpppA3, 100 µM): 80.9779; Percent of Control ([1]; listed as m7-GpppA, 100 µM): 69.519
O=c1[nH]cnc2c1ncn2[C@@H]1O[C@H](COP(=O)(O)OP(=O)(O)OP(=O)(O)O)[C@@H](O)[C@H]1O [ITP]		74.6508	92.365	4.642	4.657	moderate decrease in affinity	1.91 µM	Percent of Control ([1]; listed as ITP2, 100 µM): 66.4533; Percent of Control ([1]; listed as ITP3, 100 µM): 65.1342
Nc1ccn([C@@H]2O[C@H](COP(=O)(O)OP(=O)(O)OP(=O)(O)O)[C@@H](O)[C@H]2O)c(=O)n1 [CTP]		49.6579	48.7482	4.146	4.036	markedly decreased ability to outcompete GTP-Bodipy	6.94 µM	Percent of Control ([1]; listed as CTP2, 100 µM): 53.2419; Percent of Control ([1]; listed as CTP3, 100 µM): 46.9836
O=c1ccn([C@@H]2O[C@H](COP(=O)(O)OP(=O)(O)OP(=O)(O)O)[C@@H](O)[C@H]2O)c(=O)[nH]1 [UTP]		59.4237	68.643	4.3046	4.272	markedly decreased ability to outcompete GTP-Bodipy	4.46 µM	Percent of Control ([1]; listed as UTP2, 100 µM): 52.4244; Percent of Control ([1]; listed as UTP3, 100 µM): 57.2037
Nc1nc2c(ncn2[C@@H]2O[C@H](COP(=O)(O)OP(=O)(O)O)[C@@H](O)[C@H]2O)c(=O)[nH]1 [GDP]		78.8606	63.0295	4.329	4.21	slight decrease in affinity	4.89 µM	Percent of Control ([1]; listed as GDP2, 100 µM): 85.6756; Percent of Control ([1]; listed as GDP3, 100 µM): 87.8767
Cn1c[n+]([C@@H]2O[C@H](COP(=O)(O)O)[C@@H](O)[C@H]2O)c2nc(N)[nH]c(=O)c21 [me^7-GMP]	least ability to inhibit guanylation	102.357				very poor competitor	21.9 µM	Percent of Control ([1]; listed as m7-GMP2, 100 µM): 87.9178; Percent of Control ([1]; listed as m7-GMP3, 100 µM): 97.473; Percent of Control ([1]; listed as m7-GMP, 100 µM): 121.679
Nc1nc2c(ncn2[C@H]2C[C@H](O)[C@@H](COP(=O)(O)OP(=O)(O)OP(=O)(O)O)O2)c(=O)[nH]1 [dGTP]	greatest ability to in inhibit nsP1 guanylation activity	25.7895	29.9486	5.4125	5.208	less affinity compared to the others	4.21 µM	Percent of Control ([1]; listed as dGTP2, 100 µM): 23.146; Percent of Control ([1]; listed as dGTP3, 100 µM): 24.2738
Nc1nc2c(ncn2[C@@H]2O[C@H](COP(=O)(O)OP(=O)(O)OP(=O)(O)O)[C@@H](O)[C@H]2O)c(=O)[nH]1 [GTP]	greatest ability to in inhibit nsP1 guanylation activity	44.8021	42.0576	5.173	5.17		0.546 µM	effect on nsP1 guanylation activity (in words) [1]: significantly diminished guanylation activity; % of control, mean of replicates [1]: 0.417; Percent of Control ([1]; listed as GTP2, 100 µM): 51.0432; Percent of Control ([1]; listed as GTP3, 100 µM): 41.3055; EC50 ([3]; read-out: EC50 concentration of GTP, FP displacement of GTP-Bodipy, used for midpoint signal wells): 6.8 µM
Nc1nc2c(ncn2[C@@H]2O[C@H](CO)[C@@H](O)[C@H]2O)c(=O)[nH]1 [Guanosine]	least ability to inhibit guanylation	109.076	100.679			not able to calculate a Ki		Percent of Control ([1]; listed as Guanosine2, 100 µM): 132.685; Percent of Control ([1]; listed as Guanosine3, 100 µM): 93.8632
Nc1nc2c(ncn2[C@H]2CC[C@@H](COP(=O)(O)OP(=O)(O)OP(=O)(O)O)O2)c(=O)[nH]1 [ddGTP]	greatest ability to in inhibit nsP1 guanylation activity	32.7576	32.7691			binding slightly better than the others	0.425 µM	Percent of Control ([1]; listed as ddGTP2, 100 µM): 30.4919; Percent of Control ([1]; listed as ddGTP3, 100 µM): 35.0118
